# The supplement of paper PMC10733146
# Key:
# Assay in all cases: viability relative to DMSO control (fraction); higher = less drug effect (more viable cells)
# Conditions in all cases: 48 h
# SGC 0946 = compound: CC(C)N(CCCNC(=O)Nc1ccc(C(C)(C)C)cc1)C[C@H]1O[C@@H](n2cc(Br)c3c(N)ncnc32)[C@H](O)[C@@H]1O [SGC 0946]
# Summary of the method: (§1)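 The cells were primary mononuclear tumour cells, either fresh or cryopreserved, isolated by Ficoll from blood or bone marrow or derived from processed lymph node. Each well of a 384-well plate received 4 × 10^4 cells onto compounds pre-plated at five concentrations, with one well per concentration. The medium was RPMI-1640 with penicillin/streptomycin, L-glutamine and human serum, and plates stood at 37 °C and 5% CO2 for 48 h. Viability is reported as CellTiter-Glo luminescence relative to the median of 16 inner DMSO wells.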
# Venetoclax = compound: CC1(C)CCC(CN2CCN(c3ccc(C(=O)NS(=O)(=O)c4ccc(NCC5CCOCC5)c([N+](=O)[O-])c4)c(Oc4cnc5[nH]ccc5c4)c3)CC2)=C(c2ccc(Cl)cc2)C1 [Venetoclax]
# Summary of the method: as §1
# Barasertib = compound: CCN(CCCOc1ccc2c(Nc3cc(CC(=O)Nc4cccc(F)c4)[nH]n3)ncnc2c1)CCOP(=O)(O)O [Barasertib]
# Summary of the method: as §1
# EPZ-6438 = compound: CCN(c1cc(-c2ccc(CN3CCOCC3)cc2)cc(C(=O)NCc2c(C)cc(C)[nH]c2=O)c1C)C1CCOCC1 [EPZ-6438]
# Summary of the method: as §1
# I-BET-762 = compound: CCNC(=O)C[C@@H]1N=C(c2ccc(Cl)cc2)c2cc(OC)ccc2-n2c(C)nnc21 [I-BET-762]
# Summary of the method: as §1
# CPI-169 = compound: CCS(=O)(=O)N1CCC([C@@H](C)n2c(C)c(C(=O)NCc3c(OC)cc(C)[nH]c3=O)c3ccccc32)CC1 [CPI-169]
# Summary of the method: as §1
# Midostaurin hydrate = compound: CO[C@@H]1[C@H](N(C)C(=O)c2ccccc2)C[C@H]2O[C@]1(C)n1c3ccccc3c3c4c(c5c6ccccc6n2c5c31)C(=O)NC4 [Midostaurin hydrate]
# Summary of the method: as §1
# Idasanutlin (RS7388) = compound: COc1cc(C(=O)O)ccc1NC(=O)[C@@H]1N[C@@H](CC(C)(C)C)[C@](C#N)(c2ccc(Cl)cc2F)[C@H]1c1cccc(Cl)c1F [Idasanutlin (RS7388)]
# Summary of the method: as §1
# Tofacitinib = compound: C[C@@H]1CCN(C(=O)CC#N)C[C@@H]1N(C)c1ncnc2[nH]ccc12 [Tofacitinib]
# Summary of the method: as §1
# Bendamustine = compound: Cn1c(CCCC(=O)O)nc2cc(N(CCCl)CCCl)ccc21 [Bendamustine]
# Summary of the method: as §1
# Pomalidomide = compound: Nc1cccc2c1C(=O)N(C1CCC(=O)NC1=O)C2=O [Pomalidomide]
# Summary of the method: as §1
# [1] = compound: O=C(NO)c1cccc(C(=O)NCCc2ccccc2)c1
# Summary of the method: as §1
# Filgotinib = compound: O=C(Nc1nc2cccc(-c3ccc(CN4CCS(=O)(=O)CC4)cc3)n2n1)C1CC1 [Filgotinib]
# Summary of the method: as §1
# Chlorambucil = compound: O=C(O)CCCc1ccc(N(CCCl)CCCl)cc1 [Chlorambucil]
# Summary of the method: as §1
# Thalidomide = compound: O=C1CCC(N2C(=O)c3ccccc3C2=O)C(=O)N1 [Thalidomide]
# Summary of the method: as §1
test system,measurement,setting,value
primary DLBCL patient cells (S082),viability,SGC 0946; 0.024 µM,0.899
same,viability,SGC 0946; 0.12 µM,0.975
same,viability,SGC 0946; 0.6 µM,0.932
same,viability,SGC 0946; 3 µM,0.91
same,viability,SGC 0946; 15 µM,0.834
same,viability,Venetoclax; 0.00064 µM,1.01
same,viability,Venetoclax; 0.0032 µM,0.876
same,viability,Venetoclax; 0.016 µM,0.547
same,viability,Venetoclax; 0.08 µM,0.143
same,viability,Venetoclax; 0.4 µM,0.0409
same,viability,Barasertib; 0.0008 µM,0.93
same,viability,Barasertib; 0.004 µM,0.902
same,viability,Barasertib; 0.02 µM,0.881
same,viability,Barasertib; 0.1 µM,0.945
same,viability,Barasertib; 0.5 µM,0.979
same,viability,EPZ-6438; 0.024 µM,0.978
same,viability,EPZ-6438; 0.12 µM,0.97
same,viability,EPZ-6438; 0.6 µM,0.962
same,viability,EPZ-6438; 3 µM,0.896
same,viability,EPZ-6438; 15 µM,0.905
same,viability,I-BET-762; 0.008 µM,0.89
same,viability,I-BET-762; 0.04 µM,0.865
same,viability,I-BET-762; 0.2 µM,0.633
same,viability,I-BET-762; 1 µM,0.246
same,viability,I-BET-762; 5 µM,0.116
same,viability,CPI-169; 0.024 µM,0.893
same,viability,CPI-169; 0.12 µM,0.906
same,viability,CPI-169; 0.6 µM,0.87
same,viability,CPI-169; 3 µM,0.859
same,viability,CPI-169; 15 µM,0.866
same,viability,Midostaurin hydrate; 0.024 µM,1.03
same,viability,Midostaurin hydrate; 0.12 µM,0.986
same,viability,Midostaurin hydrate; 0.6 µM,0.999
same,viability,Midostaurin hydrate; 3 µM,0.814
same,viability,Midostaurin hydrate; 15 µM,0.224
same,viability,Idasanutlin (RS7388); 0.032 µM,0.954
same,viability,Idasanutlin (RS7388); 0.16 µM,1.08
same,viability,Idasanutlin (RS7388); 0.8 µM,1.09
same,viability,Idasanutlin (RS7388); 4 µM,0.924
same,viability,Idasanutlin (RS7388); 20 µM,1.13
same,viability,Tofacitinib; 0.024 µM,0.93
same,viability,Tofacitinib; 0.12 µM,0.941
same,viability,Tofacitinib; 0.6 µM,0.967
same,viability,Tofacitinib; 3 µM,1.08
same,viability,Tofacitinib; 15 µM,1.02
same,viability,Bendamustine; 0.032 µM,1.04
same,viability,Bendamustine; 0.16 µM,1.09
same,viability,Bendamustine; 0.8 µM,1.07
same,viability,Bendamustine; 4 µM,1.04
same,viability,Bendamustine; 20 µM,0.962
same,viability,Pomalidomide; 0.0032 µM,0.93
same,viability,Pomalidomide; 0.016 µM,1.08
same,viability,Pomalidomide; 0.08 µM,1.14
same,viability,Pomalidomide; 0.4 µM,1.02
same,viability,Pomalidomide; 2 µM,1.04
same,viability,[1]; 0.024 µM,0.969
same,viability,[1]; 0.12 µM,0.932
same,viability,[1]; 0.6 µM,0.951
same,viability,[1]; 3 µM,0.899
same,viability,[1]; 15 µM,0.867
same,viability,Filgotinib; 0.024 µM,0.971
same,viability,Filgotinib; 0.12 µM,0.976
same,viability,Filgotinib; 0.6 µM,1.03
same,viability,Filgotinib; 3 µM,0.933
same,viability,Filgotinib; 15 µM,0.758
same,viability,Chlorambucil; 0.032 µM,1.07
same,viability,Chlorambucil; 0.16 µM,0.989
same,viability,Chlorambucil; 0.8 µM,1.06
same,viability,Chlorambucil; 4 µM,1
same,viability,Chlorambucil; 20 µM,0.831
same,viability,Thalidomide; 0.032 µM,0.969
same,viability,Thalidomide; 0.16 µM,0.938
same,viability,Thalidomide; 0.8 µM,0.969
same,viability,Thalidomide; 4 µM,0.927
same,viability,Thalidomide; 20 µM,1.01
primary FL patient cells (S022),viability,SGC 0946; 0.024 µM,0.902
same,viability,SGC 0946; 0.12 µM,0.937
same,viability,SGC 0946; 0.6 µM,0.808
same,viability,SGC 0946; 3 µM,0.9
same,viability,SGC 0946; 15 µM,0.484
same,viability,Venetoclax; 0.00064 µM,1.01
same,viability,Venetoclax; 0.0032 µM,0.894
same,viability,Venetoclax; 0.016 µM,0.67
same,viability,Venetoclax; 0.08 µM,0.313
same,viability,Venetoclax; 0.4 µM,0.066
same,viability,Barasertib; 0.0008 µM,0.844
same,viability,Barasertib; 0.004 µM,0.871
same,viability,Barasertib; 0.02 µM,0.904
same,viability,Barasertib; 0.1 µM,0.972
same,viability,Barasertib; 0.5 µM,0.935
same,viability,EPZ-6438; 0.024 µM,1.08
same,viability,EPZ-6438; 0.12 µM,1.04
same,viability,EPZ-6438; 0.6 µM,0.978
same,viability,EPZ-6438; 3 µM,0.997
same,viability,EPZ-6438; 15 µM,0.892
same,viability,I-BET-762; 0.008 µM,0.986
same,viability,I-BET-762; 0.04 µM,0.967
same,viability,I-BET-762; 0.2 µM,0.945
same,viability,I-BET-762; 1 µM,0.894
same,viability,I-BET-762; 5 µM,0.882
same,viability,CPI-169; 0.024 µM,1.07
same,viability,CPI-169; 0.12 µM,0.933
same,viability,CPI-169; 0.6 µM,1.14
same,viability,CPI-169; 3 µM,0.97
same,viability,CPI-169; 15 µM,0.953
same,viability,Midostaurin hydrate; 0.024 µM,1.05
same,viability,Midostaurin hydrate; 0.12 µM,1.01
same,viability,Midostaurin hydrate; 0.6 µM,1.11
same,viability,Midostaurin hydrate; 3 µM,1.03
same,viability,Midostaurin hydrate; 15 µM,0.774
same,viability,Idasanutlin (RS7388); 0.032 µM,0.837
same,viability,Idasanutlin (RS7388); 0.16 µM,0.831
same,viability,Idasanutlin (RS7388); 0.8 µM,0.772
same,viability,Idasanutlin (RS7388); 4 µM,0.608
same,viability,Idasanutlin (RS7388); 20 µM,0.579
same,viability,Tofacitinib; 0.024 µM,0.904
same,viability,Tofacitinib; 0.12 µM,0.859
same,viability,Tofacitinib; 0.6 µM,0.936
same,viability,Tofacitinib; 3 µM,0.914
same,viability,Tofacitinib; 15 µM,0.894
same,viability,Bendamustine; 0.032 µM,1.13
same,viability,Bendamustine; 0.16 µM,1.1
same,viability,Bendamustine; 0.8 µM,1.19
same,viability,Bendamustine; 4 µM,1.14
same,viability,Bendamustine; 20 µM,0.888
same,viability,Pomalidomide; 0.0032 µM,0.928
same,viability,Pomalidomide; 0.016 µM,1.08
same,viability,Pomalidomide; 0.08 µM,1.05
same,viability,Pomalidomide; 0.4 µM,0.954
same,viability,Pomalidomide; 2 µM,1
same,viability,[1]; 0.024 µM,1.07
same,viability,[1]; 0.12 µM,0.992
same,viability,[1]; 0.6 µM,1.07
same,viability,[1]; 3 µM,0.961
same,viability,[1]; 15 µM,0.984
same,viability,Filgotinib; 0.024 µM,0.984
same,viability,Filgotinib; 0.12 µM,0.944
same,viability,Filgotinib; 0.6 µM,1.01
same,viability,Filgotinib; 3 µM,0.91
same,viability,Filgotinib; 15 µM,0.568
same,viability,Chlorambucil; 0.032 µM,1.08
same,viability,Chlorambucil; 0.16 µM,0.896
same,viability,Chlorambucil; 0.8 µM,1.08
same,viability,Chlorambucil; 4 µM,1.04
same,viability,Chlorambucil; 20 µM,0.582
same,viability,Thalidomide; 0.032 µM,0.988
same,viability,Thalidomide; 0.16 µM,1.09
same,viability,Thalidomide; 0.8 µM,0.952
same,viability,Thalidomide; 4 µM,0.921
same,viability,Thalidomide; 20 µM,0.961
